According to publication PMC9253031, “Redox-sensitive doxorubicin liposome: a formulation approach for targeted tumor therapy” (Scientific Reports, 2022):

What was measured:
[1] = test system: NIH-3T3 cell line (mouse embryonic fibroblast cells); test: MTT cytotoxicity, NIH-3T3 cells; assay type: cell-based; details: 48 h treatment
Experimental: (§1) C26 and NIH-3T3 cell lines were cultured at 37 °C in a 5% CO2/95% air humidified atmosphere in RPMI 1640 and DEMEM media, respectively; the media were supplemented with 10% FCS and 100 U/mL penicillin, and 100 μg/mL streptomycin.
(§2) C26 and NIH-3T3 cells were seeded at 5000 cells/well into 96-well plates. […] After 48 h incubation at 37 °C, the cells were washed with PBS and MTT (10 μL/well MTT and 100 μL/well cell media) was added. After an additional incubation for 4 h at 37 °C, the absorbance of MTT was measured using a microplate reader (Awareness Technology Inc., USA) at 570 nm. Relative cell death (R) was calculated as follows:
(§3) R = 1 − [(A sample − A blank)/(A control − A blank)], where A sample and A control are the absorbances of the cells incubated with the sample solutions and the culture medium as the control group, respectively. A blank is the absorbance of MTT solution in a well without cells. The IC50 values were calculated using CalcuSyn Version 2.0 software (BIOSOFT, UK)[52].

[2] = Plasma Dox concentration and pharmacokinetics after i.v. administration; assay type: in vivo, BALB/c mice; details: Dox 10 mg/kg, mice
C26 tumor = test: Anti-tumor efficacy and survival in mice bearing C26 colon cancer; details: single i.v. dose 10 mg/kg Dox
[3] = test system: C26 cell line (murine colon carcinoma cells); test: MTT cytotoxicity, C26 cells; assay type: cell-based, mouse; details: 48 h treatment
Experimental: as §1, §2, §3

C26 cells = test: Dox cellular uptake by spectrofluorometry; assay type: cell-based, mouse; details: 1 and 3 h incubation, compared to Caelyx
Experimental: C26 cells were seeded at 1 × 10^6 cells/well in 6-well plates and incubated overnight. […] After 1 and 3 h of incubation at 37 °C, cells were washed with cold PBS. Then, acidified isopropyl alcohol (0.9 mL) was added to each well and transferred to a 2 mL vial and stored at 4 °C for 24 h. Samples were centrifuged for 10 min at 14,000 rpm.

| melting point | Structure (SMILES) | IC50 (NIH) 48 h [1] | AUC (total area under the plasma concentration-time curve) [2] | Cl (clearance) [2] | MST (median survival time) (C26 tumor) | TGD (tumor growth delay) (C26 tumor) | TTE (time to reach end point) ± SD (C26 tumor; C26 tumor, BALB/c mice, listed as Dox.HCl, 10 mg/kg) | IC50 (C26) 48 h [3] | Cellular uptake of Dox (spectrofluorometry) (C26 cells) |
| --- | --- | --- | --- | --- | --- | --- | --- | --- | --- |
| 82 °C | O=C(O)CCCCCCCCC[Se][Se]CCCCCCCCCC(=O)O | – | – | – | – | – | – | – | – |
| – | COc1cccc2c1C(=O)c1c(O)c3c(c(O)c1C2=O)C[C@@](O)(C(=O)CO)C[C@@H]3O[C@H]1C[C@H](N)[C@H](O)[C@H](C)O1.Cl [Dox, Doxorubicin hydrochloride] | 0.042 ± 0.013 µg/mL | 7200 ng·h/mL | 1.38 (mg)/(μg/mL)/h | 33.10 days | 10.12% | 32.40 ± 5.94 days | 0.01 ± 0.010 µg/mL | highest cellular uptake |
